# Laboratory results from patent US20030139431A1 (priority 2001, published 2003).
# Key:
# rNPFF2 [1] = biological target: T1, rNPFF2 (Rattus norvegicus, UniProt Q9EQD2); experiment: Binding affinity at cloned recombinant rat NPFF2 receptor
# T1 construct: expressed in transfected cells
# rNPFF1 [2] = biological target: T2, rNPFF1 (Rattus norvegicus, UniProt Q9EP86); experiment: Functional assay (agonist potency, intrinsic activity) at cloned rat NPFF1 receptor; type: cell-based; settings: for rNPFF1 IA (intrinsic activity): percent of maximum response elicited by neuropeptide FF, rat NPFF1; for EC50: recombinant rat NPFF1
# T2 construct: expressed in transfected cells
# Method: (§1) Intrinsic activity of a compound is measured as the percent of maximum response.
# rNPFF1 [3] = biological target: T2, rNPFF1; experiment: Binding affinity at cloned recombinant rat NPFF1 receptor
# rNPFF2 [4] = biological target: T1, rNPFF2; experiment: Functional assay (agonist potency, intrinsic activity) at cloned rat NPFF2 receptor; type: cell-based; settings: for rNPFF2 IA (intrinsic activity): percent of maximum response elicited by neuropeptide FF, rat NPFF2; for EC50: recombinant rat NPFF2
# Method: as §1
# hNPFF1 = biological target: T3, hNPFF1 (Homo sapiens, UniProt Q9GZQ6); experiment: Binding affinity at cloned recombinant human NPFF1 receptor
# T3 construct: expressed in transfected cells
# hNPFF2 = biological target: T4, hNPFF2 (Homo sapiens, UniProt Q9Y5X5); experiment: Binding affinity at cloned recombinant human NPFF2 receptor
# T4 construct: expressed in transfected cells
# T4 sequence (Q9Y5X5 103-522): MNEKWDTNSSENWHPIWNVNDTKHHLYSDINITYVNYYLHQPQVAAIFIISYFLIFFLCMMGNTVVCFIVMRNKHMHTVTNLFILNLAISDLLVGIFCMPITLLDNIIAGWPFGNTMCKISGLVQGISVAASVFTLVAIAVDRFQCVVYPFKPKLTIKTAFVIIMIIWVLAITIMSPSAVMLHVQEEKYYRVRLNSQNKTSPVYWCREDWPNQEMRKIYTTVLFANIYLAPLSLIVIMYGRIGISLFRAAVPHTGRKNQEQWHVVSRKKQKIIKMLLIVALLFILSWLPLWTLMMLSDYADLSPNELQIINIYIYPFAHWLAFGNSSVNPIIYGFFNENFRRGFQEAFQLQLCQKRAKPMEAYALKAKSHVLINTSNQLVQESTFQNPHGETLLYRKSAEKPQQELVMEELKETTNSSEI
# T2 sequence (Q9EP86 whole entry): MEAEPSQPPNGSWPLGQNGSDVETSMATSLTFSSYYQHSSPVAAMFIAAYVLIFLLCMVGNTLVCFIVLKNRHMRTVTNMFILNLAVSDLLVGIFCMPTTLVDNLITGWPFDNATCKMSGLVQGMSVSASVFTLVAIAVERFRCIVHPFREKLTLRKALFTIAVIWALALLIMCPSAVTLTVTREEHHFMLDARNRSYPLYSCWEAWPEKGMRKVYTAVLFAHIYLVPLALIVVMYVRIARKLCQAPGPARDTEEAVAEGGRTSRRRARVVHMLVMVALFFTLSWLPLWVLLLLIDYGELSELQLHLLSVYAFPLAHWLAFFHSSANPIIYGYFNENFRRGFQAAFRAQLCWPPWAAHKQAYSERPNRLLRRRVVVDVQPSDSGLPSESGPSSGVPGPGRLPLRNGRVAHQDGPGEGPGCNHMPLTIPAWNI
# T3 sequence (Q9GZQ6 whole entry): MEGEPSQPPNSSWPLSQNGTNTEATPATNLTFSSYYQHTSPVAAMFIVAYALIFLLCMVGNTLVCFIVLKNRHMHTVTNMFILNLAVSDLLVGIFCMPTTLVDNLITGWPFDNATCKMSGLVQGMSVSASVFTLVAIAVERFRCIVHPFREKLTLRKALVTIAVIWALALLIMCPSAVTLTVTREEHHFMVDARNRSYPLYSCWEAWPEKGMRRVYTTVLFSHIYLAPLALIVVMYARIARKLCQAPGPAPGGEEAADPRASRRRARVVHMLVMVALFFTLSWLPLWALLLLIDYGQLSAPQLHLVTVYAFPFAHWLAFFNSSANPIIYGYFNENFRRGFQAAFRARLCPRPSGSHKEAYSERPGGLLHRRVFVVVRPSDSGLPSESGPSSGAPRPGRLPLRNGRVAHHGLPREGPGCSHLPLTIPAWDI
# T1 sequence (Q9EQD2 whole entry): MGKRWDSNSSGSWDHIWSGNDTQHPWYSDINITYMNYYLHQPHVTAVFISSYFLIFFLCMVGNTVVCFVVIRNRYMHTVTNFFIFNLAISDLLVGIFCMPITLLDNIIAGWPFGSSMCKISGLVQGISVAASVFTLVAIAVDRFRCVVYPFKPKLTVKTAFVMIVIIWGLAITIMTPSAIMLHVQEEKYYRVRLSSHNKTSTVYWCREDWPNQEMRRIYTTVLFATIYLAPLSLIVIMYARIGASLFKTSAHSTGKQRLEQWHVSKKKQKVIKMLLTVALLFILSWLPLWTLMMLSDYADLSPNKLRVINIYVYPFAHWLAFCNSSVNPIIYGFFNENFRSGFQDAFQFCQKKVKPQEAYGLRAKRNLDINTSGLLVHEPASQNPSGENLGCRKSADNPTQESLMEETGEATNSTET
SMILES,Ki (rNPFF2 [1]) [nM],rNPFF1 IA (intrinsic activity) (rNPFF1 [2]),EC50 (rNPFF1 [2]) [nM],Ki (rNPFF1 [3]) [nM],rNPFF2 IA (intrinsic activity) (rNPFF2 [4]),EC50 (rNPFF2 [4]) [nM],Ki (hNPFF1) [nM],Ki (hNPFF2) [nM]
"Cc1nc(NC(=N)N)nc2ccccc12 [Compound 1001, N-(4-methyl-2-quinazolinyl)guanidine]",> 10000,Inactive,> 10000,202,16% NPFF,3080,240,2040
"Cc1nc(NC(=N)N)nc2ccc(C3CCCCC3)cc12 [Compound 1029, N-(6-cyclohexyl-4-methyl-2-quinazolinyl)guanidine]",1200,28% NPFF,> 10000,912,31% NPFF,2050,,
"Cc1nc(NC(=N)N)nc2ccc(OC(F)(F)F)cc12 [Compound 1030, N-[4-methyl-6-(trifluoromethoxy)-2-quinazolinyl]guanidine]",4860,Inactive,> 10000,176,85% NPFF,625,,
"CCCCCOc1ccc2nc(NC(=N)N)nc(C)c2c1 [Compound 1031, N-[4-methyl-6-(pentyloxy)-2-quinazolinyl]guanidine]",3220,Inactive,> 10000,794,66% NPFF,2190,,
"Cc1nc(NC(=N)N)nc2ccc(Oc3ccccc3)cc12 [Compound 1032, N-(4-methyl-6-phenoxy-2-quinazolinyl)guanidine]",1640,31% NPFF,374,291,93% NPFF,459,,
"Cc1ccc(Oc2ccc3nc(NC(=N)N)nc(C)c3c2)cc1 [Compound 1033, N-[4-methyl-6-(4-methylphenoxy)-2-quinazolinyl]guanidine]",5860,Inactive,> 10000,481,51% NPFF,3160,,
"Cc1nc(NC(=N)N)nc2ccc(CCCC(C)O)cc12 (stereo not drawn) [Compound 1034, N-(6-[1-(4-hydroxyl-pentyl)]-4-methyl-2-quinazolino)guanidine]",1540,63% NPFF,610,82,101% NPFF,394,,
"Cc1nc(NC(=N)N)nc2cc(C(C)O)ccc12 (stereo not drawn) [Compound 1035, N-[7-(1-hydroxyethyl)-4-methyl-2-quinazolinyl]guanidine]",1180,Inactive,> 10000,842,52% NPFF,3160,,
"Cc1nc(NC(=N)N)nc2cc(OC(F)(F)F)ccc12 [Compound 1036, N-[4-methyl-7-(trifluoromethoxy)-2-quinazolinyl]guanidine]",2460,Inactive,> 10000,132,78% NPFF,369,,
"CCCCCCCc1ccc2nc(NC(=N)N)nc(C)c2c1 [Compound 2006, N-(6-heptyl-4-methyl-2-quinazolinyl)guanidine]",3670,38% NPFF,886,788,47% NPFF,1950,,
"Cc1cc(NC(=N)N)nc2ccc(-c3ccccc3)cc12 [Compound 4003, N-(4-methyl-6-phenyl-2-quinolinyl)guanidine]",1250,Inactive,> 10000,176,26% NPFF,3160,207,2120
"COc1ccc2nc(NC(=N)N)cc(C)c2c1 [Compound 4004, N-(6-methoxy-4-methyl-2-quinolinyl)guanidine]",2580,Inactive,> 10000,153,65% NPFF,1530,113,1210
"Cc1cc(C)c2c(C)cc(NC(=N)N)nc2c1 [Compound 4008, N-(4,5,7-trimethyl-2-quinolinyl)guanidine]",882,Inactive,> 10000,64,65% NPFF,411,82,514
"Cc1cc(NC(=N)N)nc2ccc3ccccc3c12 [Compound 4009, N-(1-methylbenzo[f]quinolin-3-yl)guanidine]",871,Inactive,> 10000,153,70% NPFF,3160,144,826
"Cc1cc(NC(=N)N)nc2c(C)cccc12 [Compound 6002, N-(4,8-dimethyl-2-quinolinyl)guanidine]",883,Inactive,> 10000,91,Inactive,> 10000,157,952

# These reach a lower Ki (rNPFF2 [1]). Values come first.
Ki (rNPFF2 [1]) [nM],rNPFF1 IA (intrinsic activity) (rNPFF1 [2]),EC50 (rNPFF1 [2]) [nM],Ki (rNPFF1 [3]) [nM],rNPFF2 IA (intrinsic activity) (rNPFF2 [4]),EC50 (rNPFF2 [4]) [nM],Ki (hNPFF1) [nM],Ki (hNPFF2) [nM],SMILES
699,Inactive,> 10000,146,66% NPFF,1300,53,260,"Cc1nc(NC(=N)N)nc2ccc3ccccc3c12 [Compound 1007, N-(1-methylbenzo[f]quinazolin-3-yl)guanidine]"
817,Inactive,> 10000,386,79% NPFF,758,,,"Cc1nc(NC(=N)N)nc2ccc(OCc3ccccc3)cc12 [Compound 1028, N-[6-(benzyloxy)-4-methyl-2-quinazolinyl]guanidine]"
824,Inactive,> 10000,143,71% NPFF,3160,,,"Cc1nc(NC(=N)N)nc2cc3c(cc12)C=CCC3 [Compound 1037, N-(4-methyl-8,9-dihydrobenzo[g]quinazolin-2-yl)guanidine]"
461,51% NPFF,250,77,92% NPFF,423,,,"CCC(C)c1ccc2nc(NC(=N)N)nc(C)c2c1 (stereo not drawn) [Compound 2002, N-(6-sec-butyl-4-methyl-2-quinazolinyl)guanidine]"
195,56% NPFF,171,371,89% NPFF,49,,,"Cc1nc(NC(=N)N)nc2ccc(Cc3ccccc3)cc12 [Compound 2003, N-(6-benzyl-4-methyl-2-quinazolinyl)guanidine]"
262,40% NPFF,194,392,101% NPFF,124,,,"CCCCc1ccc2nc(NC(=N)N)nc(C)c2c1 [Compound 2004, N-(6-butyl-4-methyl-2-quinazolinyl)guanidine]"
268,56% NPFF,137,88,81% NPFF,105,,,"CCCCCCc1ccc2nc(NC(=N)N)nc(C)c2c1 [Compound 2005, N-(6-hexyl-4-methyl-2-quinazolinyl)guanidine]"
556,Inactive,> 10000,30,68% NPFF,404,21,150,"Cc1ccc2nc(NC(=N)N)cc(C)c2c1 [Compound 4001, N-(4,6-dimethyl-2-quinolinyl)guanidine]"
619,Inactive,> 10000,44,17% NPFF,2640,,,"Cc1cc(NC(=N)N)nc2cc(F)ccc12 [Compound 4007, N-(7-fluoro-4-methyl-2-quinolinyl)guanidine]"
115,28% NPFF,123,24,82% NPFF,69,,,"CCCCc1ccc2nc(NC(=N)N)cc(C)c2c1 [Compound 5001, N-(6-butyl-4-methyl-2-quinolinyl)guanidine]"
203,Inactive,> 10000,21,Inactive,> 10000,28,113,"CCc1cc(NC(=N)N)nc2cc(C)ccc12 [Compound 6003, N-(4-ethyl-7-methyl-2-quinolinyl)guanidine]"
